Experiment [1] deals with Serine/threonine-protein kinase B-raf (Homo sapiens), P15056 [V600E]. The conditions noted are these: at 10 µM.
Experiment [2] deals with Serine/threonine-protein kinase Nek4 (Homo sapiens) (UniProt P51957). Kind of experiment: Selectivity interaction (KinomeScan (DiscoverX)) EUB0000666a NEK4. The conditions noted are these: at 10 µM.
Experiment [3] has as its target Insulin receptor-related protein (Homo sapiens) (UniProt P14616). Nature of the experiment: Selectivity interaction (KinomeScan (DiscoverX)) EUB0000607a INSRR. Particulars: at 10 µM.
Experiment [4] addresses Mitogen-activated protein kinase kinase kinase 9 (Homo sapiens) (UniProt P80192). Nature of the experiment: Selectivity interaction (SelectScreen profiling (Invitrogen)) EUB0000607a MAP3K9. The conditions noted are these: at 2 µM.
The target of experiment [5] is Fibroblast growth factor receptor 3 (Homo sapiens, UniProt P22607). Nature of the experiment: Selectivity interaction (Kinase panel (Invitrogen)) EUB0000639a FGFR3. Particulars: at 200 nM.
Fibroblast growth factor receptor 3, sequence (P22607 23-806 limits assumed): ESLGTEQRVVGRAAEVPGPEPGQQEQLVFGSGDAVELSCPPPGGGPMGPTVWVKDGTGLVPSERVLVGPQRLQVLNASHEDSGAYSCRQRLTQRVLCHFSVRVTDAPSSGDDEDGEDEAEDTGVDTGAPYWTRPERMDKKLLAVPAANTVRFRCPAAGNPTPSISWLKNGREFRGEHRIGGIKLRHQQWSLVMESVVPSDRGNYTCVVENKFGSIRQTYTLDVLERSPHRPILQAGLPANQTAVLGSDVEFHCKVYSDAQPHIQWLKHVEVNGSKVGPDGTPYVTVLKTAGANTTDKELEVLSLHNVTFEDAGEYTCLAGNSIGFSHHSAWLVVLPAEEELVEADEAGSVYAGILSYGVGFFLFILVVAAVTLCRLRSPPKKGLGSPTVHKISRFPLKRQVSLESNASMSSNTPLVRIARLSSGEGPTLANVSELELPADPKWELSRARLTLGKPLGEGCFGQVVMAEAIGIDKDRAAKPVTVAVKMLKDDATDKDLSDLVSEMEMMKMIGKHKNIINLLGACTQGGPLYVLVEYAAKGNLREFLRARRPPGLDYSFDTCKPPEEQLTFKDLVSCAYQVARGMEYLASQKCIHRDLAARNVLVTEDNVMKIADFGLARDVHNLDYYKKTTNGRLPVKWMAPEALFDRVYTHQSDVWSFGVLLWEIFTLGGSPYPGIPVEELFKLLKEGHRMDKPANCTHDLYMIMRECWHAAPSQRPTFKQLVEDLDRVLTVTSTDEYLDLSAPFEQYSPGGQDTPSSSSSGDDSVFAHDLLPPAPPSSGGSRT
The target of experiment [6] is Serine/threonine-protein kinase MARK2 (Homo sapiens) (UniProt Q7KZI7). Kind of experiment: Selectivity interaction (Kinase panel (Invitrogen)) EUB0000639a MARK2. The conditions noted are these: at 200 nM.
The nature of experiment [7]: Selectivity interaction (Ambit KINOMEscan and KiNATiv profiling in Jurkat cells) EUB0000090b PKNB. Particulars: Selectivity number of off-targets 9; Selectivity number of targets 456; Source Knowledge https://www.nature.com/articles/nchembio.2166; at 1 µM.
The target in experiment [8] is T1, Serine/threonine-protein kinase DCLK3 (Homo sapiens) (UniProt Q9C098).
T1 sequence (whole entry): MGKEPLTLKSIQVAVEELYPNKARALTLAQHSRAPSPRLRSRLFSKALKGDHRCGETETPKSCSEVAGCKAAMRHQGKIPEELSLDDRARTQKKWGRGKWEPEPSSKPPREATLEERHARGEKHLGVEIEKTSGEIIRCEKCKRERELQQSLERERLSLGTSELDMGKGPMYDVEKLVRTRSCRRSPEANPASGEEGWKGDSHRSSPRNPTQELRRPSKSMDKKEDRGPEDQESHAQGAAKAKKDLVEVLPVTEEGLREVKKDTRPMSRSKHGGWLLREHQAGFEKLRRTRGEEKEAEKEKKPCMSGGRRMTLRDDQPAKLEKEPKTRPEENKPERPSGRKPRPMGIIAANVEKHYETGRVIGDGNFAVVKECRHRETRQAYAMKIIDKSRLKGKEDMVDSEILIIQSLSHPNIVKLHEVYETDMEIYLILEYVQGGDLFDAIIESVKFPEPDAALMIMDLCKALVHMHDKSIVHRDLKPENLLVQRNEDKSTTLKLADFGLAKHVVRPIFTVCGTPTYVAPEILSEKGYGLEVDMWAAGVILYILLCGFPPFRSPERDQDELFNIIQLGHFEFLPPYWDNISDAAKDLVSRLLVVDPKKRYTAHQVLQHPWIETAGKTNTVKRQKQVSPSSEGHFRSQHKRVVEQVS
Kind of experiment: Selectivity interaction (KinomeScan (DiscoverX)) EUB0001049a DCLK3. Particulars: at 1 µM.

In experiment [9] the target is Macrophage colony-stimulating factor 1 receptor (Homo sapiens) (UniProt P07333). Kind of experiment: Selectivity interaction (Upstate Kinase Profiler service (Millipore)) EUB0000056c CSF1R. The conditions noted are these: at 1 µM.
Macrophage colony-stimulating factor 1 receptor (Homo sapiens), sequence (P07333 whole entry): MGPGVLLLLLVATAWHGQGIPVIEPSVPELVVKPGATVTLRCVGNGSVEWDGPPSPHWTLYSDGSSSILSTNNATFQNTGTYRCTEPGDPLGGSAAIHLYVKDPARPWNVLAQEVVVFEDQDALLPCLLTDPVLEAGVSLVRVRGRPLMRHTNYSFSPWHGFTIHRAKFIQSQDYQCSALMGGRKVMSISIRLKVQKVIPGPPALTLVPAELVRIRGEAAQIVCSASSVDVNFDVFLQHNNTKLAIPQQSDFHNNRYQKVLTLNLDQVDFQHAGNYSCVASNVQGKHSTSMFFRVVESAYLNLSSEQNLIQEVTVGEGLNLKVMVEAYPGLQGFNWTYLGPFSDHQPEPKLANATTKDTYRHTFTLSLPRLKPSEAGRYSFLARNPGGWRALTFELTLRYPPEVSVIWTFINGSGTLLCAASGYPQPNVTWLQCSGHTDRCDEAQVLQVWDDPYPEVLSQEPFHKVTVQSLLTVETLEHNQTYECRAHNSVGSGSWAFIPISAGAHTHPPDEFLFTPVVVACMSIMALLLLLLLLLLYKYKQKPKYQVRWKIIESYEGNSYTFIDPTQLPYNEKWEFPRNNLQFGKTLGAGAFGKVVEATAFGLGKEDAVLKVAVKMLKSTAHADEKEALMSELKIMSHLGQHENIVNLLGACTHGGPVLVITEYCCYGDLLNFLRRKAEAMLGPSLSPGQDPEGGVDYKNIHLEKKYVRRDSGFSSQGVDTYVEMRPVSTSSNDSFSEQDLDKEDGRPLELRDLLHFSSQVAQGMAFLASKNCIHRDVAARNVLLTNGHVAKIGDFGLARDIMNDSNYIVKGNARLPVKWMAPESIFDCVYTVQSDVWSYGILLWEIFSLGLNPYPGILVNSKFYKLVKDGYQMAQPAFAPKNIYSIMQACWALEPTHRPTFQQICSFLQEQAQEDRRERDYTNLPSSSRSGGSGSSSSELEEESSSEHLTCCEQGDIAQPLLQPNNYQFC
The target in experiment [10] is T2, Cyclin-dependent kinase-like 5 (Homo sapiens) (UniProt O76039).
T2 sequence (whole entry): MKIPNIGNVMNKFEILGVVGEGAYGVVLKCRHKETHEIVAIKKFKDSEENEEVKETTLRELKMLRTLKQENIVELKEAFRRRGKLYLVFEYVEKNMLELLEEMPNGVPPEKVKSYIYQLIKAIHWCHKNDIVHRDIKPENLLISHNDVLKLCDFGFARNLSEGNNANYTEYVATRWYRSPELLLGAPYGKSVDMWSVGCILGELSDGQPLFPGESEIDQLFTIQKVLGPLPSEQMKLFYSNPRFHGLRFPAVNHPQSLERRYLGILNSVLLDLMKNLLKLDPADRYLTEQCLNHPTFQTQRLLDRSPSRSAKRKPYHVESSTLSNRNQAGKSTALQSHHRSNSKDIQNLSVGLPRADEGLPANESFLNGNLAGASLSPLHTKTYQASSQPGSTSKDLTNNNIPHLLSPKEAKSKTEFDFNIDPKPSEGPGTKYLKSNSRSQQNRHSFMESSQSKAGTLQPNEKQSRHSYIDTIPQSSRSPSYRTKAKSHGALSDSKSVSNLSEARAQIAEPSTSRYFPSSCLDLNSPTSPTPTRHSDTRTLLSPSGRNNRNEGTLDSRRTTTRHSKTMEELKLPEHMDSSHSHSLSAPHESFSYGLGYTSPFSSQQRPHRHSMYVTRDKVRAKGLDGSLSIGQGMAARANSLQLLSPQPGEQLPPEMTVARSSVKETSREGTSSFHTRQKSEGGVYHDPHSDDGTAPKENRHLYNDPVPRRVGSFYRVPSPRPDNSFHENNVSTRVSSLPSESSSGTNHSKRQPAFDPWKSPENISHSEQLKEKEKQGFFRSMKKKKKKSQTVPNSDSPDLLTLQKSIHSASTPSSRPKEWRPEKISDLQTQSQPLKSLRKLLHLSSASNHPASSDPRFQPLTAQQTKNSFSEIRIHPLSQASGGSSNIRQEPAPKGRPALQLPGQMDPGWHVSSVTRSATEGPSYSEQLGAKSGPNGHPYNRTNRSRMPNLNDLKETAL
Nature of the experiment: Selectivity interaction (KinomeScan (DiscoverX)) EUB0000655a CDKL5. Particulars: at 10 µM.

In experiment [11] the target is Serine/threonine-protein kinase PAK 6 (Homo sapiens) (UniProt Q9NQU5). Kind of experiment: Selectivity interaction (KinomeScan (DiscoverX)) EUB0000092b PAK6. The conditions noted are these: at 10 µM.
Serine/threonine-protein kinase PAK 6 (Homo sapiens), sequence (Q9NQU5 whole entry, looked up): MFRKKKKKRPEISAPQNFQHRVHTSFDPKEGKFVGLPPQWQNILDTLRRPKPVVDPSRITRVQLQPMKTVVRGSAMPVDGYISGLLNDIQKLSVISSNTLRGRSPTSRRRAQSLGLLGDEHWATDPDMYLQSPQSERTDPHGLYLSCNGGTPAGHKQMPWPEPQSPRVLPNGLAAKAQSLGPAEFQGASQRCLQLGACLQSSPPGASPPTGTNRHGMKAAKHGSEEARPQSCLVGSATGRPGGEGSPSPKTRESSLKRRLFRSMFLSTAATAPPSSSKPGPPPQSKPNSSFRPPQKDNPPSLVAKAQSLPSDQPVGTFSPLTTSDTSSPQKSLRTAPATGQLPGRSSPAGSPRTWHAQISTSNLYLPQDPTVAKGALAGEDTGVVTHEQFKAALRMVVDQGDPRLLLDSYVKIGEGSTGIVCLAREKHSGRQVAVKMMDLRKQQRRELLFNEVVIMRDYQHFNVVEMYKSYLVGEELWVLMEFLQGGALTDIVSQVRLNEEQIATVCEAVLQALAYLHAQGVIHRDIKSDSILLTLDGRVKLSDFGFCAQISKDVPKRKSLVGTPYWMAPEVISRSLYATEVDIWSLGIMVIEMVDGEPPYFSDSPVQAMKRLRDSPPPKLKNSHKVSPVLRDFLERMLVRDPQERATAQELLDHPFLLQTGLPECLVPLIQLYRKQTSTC
Experiment [12] has as its target Serine/threonine-protein kinase Chk2 (Homo sapiens) (UniProt O96017). Kind of experiment: Selectivity interaction (Kinase panel (DSF assay)) EUB0001558a CHEK2.
For experiment [13], the target named is Serine/threonine-protein kinase OSR1 (Homo sapiens) (UniProt O95747). Nature of the experiment: Selectivity interaction (KinomeScan (DiscoverX)) EUB0000229b OXSR1. Particulars: at 10 µM.
Serine/threonine-protein kinase OSR1 (Homo sapiens), sequence (O95747 2-527 limits assumed): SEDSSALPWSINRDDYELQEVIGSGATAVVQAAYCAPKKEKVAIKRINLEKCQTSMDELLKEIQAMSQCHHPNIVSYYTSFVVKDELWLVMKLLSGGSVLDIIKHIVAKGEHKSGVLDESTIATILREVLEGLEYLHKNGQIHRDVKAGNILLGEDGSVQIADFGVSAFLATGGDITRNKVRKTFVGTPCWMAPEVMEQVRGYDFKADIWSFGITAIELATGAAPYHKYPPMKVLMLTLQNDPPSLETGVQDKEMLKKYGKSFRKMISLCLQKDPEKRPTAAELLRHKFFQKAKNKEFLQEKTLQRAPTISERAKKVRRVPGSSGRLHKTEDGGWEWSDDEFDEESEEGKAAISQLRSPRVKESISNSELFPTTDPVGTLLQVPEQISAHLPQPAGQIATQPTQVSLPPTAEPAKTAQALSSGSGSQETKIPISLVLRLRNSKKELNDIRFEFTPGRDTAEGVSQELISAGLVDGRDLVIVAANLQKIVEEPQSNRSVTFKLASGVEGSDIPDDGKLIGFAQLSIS
Experiment [14] has as its target T3, Testis-specific serine/threonine-protein kinase 3 (Homo sapiens) (UniProt Q96PN8).
T3 sequence (whole entry): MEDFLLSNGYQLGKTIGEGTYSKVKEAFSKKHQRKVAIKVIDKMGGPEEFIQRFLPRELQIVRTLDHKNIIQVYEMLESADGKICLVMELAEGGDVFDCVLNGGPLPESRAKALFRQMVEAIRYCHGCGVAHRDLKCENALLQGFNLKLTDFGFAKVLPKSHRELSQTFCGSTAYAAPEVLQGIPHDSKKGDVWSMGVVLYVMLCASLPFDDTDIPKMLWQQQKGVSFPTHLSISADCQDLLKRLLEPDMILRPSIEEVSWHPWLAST
Kind of experiment: Selectivity interaction (KinomeScan (DiscoverX)) EUB0000229b TSSK3. The conditions noted are these: at 10 µM.

Serine/threonine-protein kinase Chk2 (Homo sapiens), sequence (O96017 whole entry): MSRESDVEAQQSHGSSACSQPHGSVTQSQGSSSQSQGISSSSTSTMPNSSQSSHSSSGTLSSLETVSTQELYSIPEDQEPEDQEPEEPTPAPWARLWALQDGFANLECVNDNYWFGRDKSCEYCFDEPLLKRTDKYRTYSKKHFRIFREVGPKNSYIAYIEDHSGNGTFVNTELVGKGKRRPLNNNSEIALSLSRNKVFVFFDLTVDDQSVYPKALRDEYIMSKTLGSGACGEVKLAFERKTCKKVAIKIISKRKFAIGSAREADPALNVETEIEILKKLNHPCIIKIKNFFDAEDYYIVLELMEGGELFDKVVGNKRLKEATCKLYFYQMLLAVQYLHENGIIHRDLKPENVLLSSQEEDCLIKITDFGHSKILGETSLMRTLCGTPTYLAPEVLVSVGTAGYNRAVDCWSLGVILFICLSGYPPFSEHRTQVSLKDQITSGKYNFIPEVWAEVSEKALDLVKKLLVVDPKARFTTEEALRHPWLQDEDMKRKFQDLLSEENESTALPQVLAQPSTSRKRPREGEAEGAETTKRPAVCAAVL
Mitogen-activated protein kinase kinase kinase 9 (Homo sapiens), sequence (P80192 whole entry, looked up): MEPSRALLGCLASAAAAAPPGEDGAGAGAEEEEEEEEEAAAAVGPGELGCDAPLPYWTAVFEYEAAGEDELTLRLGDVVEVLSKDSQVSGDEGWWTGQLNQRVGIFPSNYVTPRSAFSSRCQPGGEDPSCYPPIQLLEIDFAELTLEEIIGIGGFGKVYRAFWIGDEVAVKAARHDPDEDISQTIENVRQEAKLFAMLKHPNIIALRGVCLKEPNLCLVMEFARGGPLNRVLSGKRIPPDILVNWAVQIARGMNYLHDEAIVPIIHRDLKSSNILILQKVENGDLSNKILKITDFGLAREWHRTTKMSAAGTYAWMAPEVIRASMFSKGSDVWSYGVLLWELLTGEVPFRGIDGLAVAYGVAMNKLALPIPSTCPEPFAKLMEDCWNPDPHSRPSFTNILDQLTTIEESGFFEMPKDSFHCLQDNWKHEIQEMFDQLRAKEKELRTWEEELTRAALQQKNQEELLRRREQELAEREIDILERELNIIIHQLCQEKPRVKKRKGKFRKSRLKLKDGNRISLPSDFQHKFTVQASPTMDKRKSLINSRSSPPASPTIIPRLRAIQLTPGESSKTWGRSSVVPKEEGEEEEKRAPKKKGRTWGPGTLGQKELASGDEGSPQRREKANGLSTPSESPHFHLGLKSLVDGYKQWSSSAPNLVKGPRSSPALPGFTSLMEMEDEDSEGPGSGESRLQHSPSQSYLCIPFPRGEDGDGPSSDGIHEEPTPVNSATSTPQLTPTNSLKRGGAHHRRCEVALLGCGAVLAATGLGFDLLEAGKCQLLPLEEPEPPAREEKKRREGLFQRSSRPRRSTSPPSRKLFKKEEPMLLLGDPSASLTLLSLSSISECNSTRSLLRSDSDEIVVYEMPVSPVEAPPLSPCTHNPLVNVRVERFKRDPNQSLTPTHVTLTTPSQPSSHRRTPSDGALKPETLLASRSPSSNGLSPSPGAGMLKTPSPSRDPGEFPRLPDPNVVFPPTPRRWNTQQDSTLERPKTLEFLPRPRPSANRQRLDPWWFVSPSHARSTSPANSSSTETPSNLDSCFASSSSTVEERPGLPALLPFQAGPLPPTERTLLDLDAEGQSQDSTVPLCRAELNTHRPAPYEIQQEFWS

Take `CCN(CC)CCCCNc1ncc2cc(-c3cc(OC)cc(OC)c3)c(NC(=O)NC(C)(C)C)nc2n1`: in experiment [1], the % of control came out at 100%.

In experiment [2], `O=C(NOC[C@H](O)CO)c1ccc(F)c(F)c1Nc1ccc(I)cc1F` displayed a % of control of 78%.

As for `CNC(=O)Nc1ccc(-c2nc(N3CC4CCC(C3)O4)c3cnn(C4CCC5(CC4)OCCO5)c3n2)cc1`, in [3], the % of control was determined as 100%. Further, the % of inhibition in experiment [4] was determined as 11%.

As for `CC[C@@H]1[C@H](F)C(=O)N[C@@H]1COc1nccc2cc(C(N)=O)c(OC)cc12` [ZIMLOVISERTIB], the % of inhibition turned out to be 2.45% in [5] and 5.09% in experiment [6].

For the compound `CN(C)C/C=C/C(=O)Nc1ccc(C(=O)N2CCCC(Nc3ncc(Cl)c(-c4c[nH]c5ccccc45)n3)C2)cc1` (centres undefined), the “% of control” value in experiment [7] is given as 38%.

In turn, `COc1cc(Nc2nc(C)cc(-c3cnn4nc(OC)ccc34)n2)cc(C(F)(F)F)c1` returned a % of control in [8] of 100%.

`Cc1ccc(-c2ccc3c(ccc4sc5c(c43)NC[C@@H](C)NC5=O)n2)cn1` showed a % of inhibition in [9] of 13%.

`CN(C)CCOc1ccc(-c2nc(-c3ccncc3)c(-c3ccc4c(c3)CC/C4=N\O)[nH]2)cc1` showed a % of control in experiment [10] of 100%.

In the case of `CCC(=O)N1CCN(c2ccc(-n3c(=O)ccc4cnc5ccc(-c6cnc7ccccc7c6)cc5c43)cc2C(F)(F)F)CC1`, the % of control in [11] turned out to be 87%.

In experiment [12], `CC(C)(O)[C@H](F)CN1Cc2cc(NC(=O)c3cnn4cccnc34)c(N3CCOCC3)cc2C1=O` displayed a dTM of 1.5 K.

In the case of `COc1cc(N(C)c2ccnc3ccc(C(F)(F)F)cc23)cc(OC)c1OC`, the figures for the % binding in experiment [13] and in experiment [14] were 79% and 81%, respectively.

Values taken from ChEMBL document CHEMBL5465560, “Selectivity Literature for EUbOPEN Chemogenomic Library” (2024).
